Some test systems named below: COLO 205 colon; MCF7 breast; SNB-19 CNS; BT-549 breast; MDA-MB-435; CCRF-CEM leukemia; OVCAR-5 ovarian; SF-539 CNS; LOX IMVI melanoma.
What all share (assay): NCI tumour cell line growth inhibition, 48 h

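96-well plates; 48 h exposure; 5 concentrations. Endpoints by linear interpolation between flanking doses. Not reached: highest tested concentration assigned. GI50: concentration for 50% inhibition of growth. TGI is the concentration that stops growth completely.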

On to `CC(C)/C(=N\[N+](C)(C)C)c1ccccc1`, for which the TGI in the assay on COLO 205 colon, in the assay with MCF7 breast, in the assay on SNB-19 CNS, in the assay with BT-549 breast, in the assay on MDA-MB-435 and in the assay with CCRF-CEM leukemia was over 100 µM throughout. Besides, the TGI in the assay on OVCAR-5 ovarian, in the assay with SF-539 CNS and with LOX IMVI melanoma was over 100 µM throughout.
As to `C=CCCCCOC1C=CC(O)C(CO)O1` (stereo not given), the TGI in the assay on COLO 205 colon, in the assay with MCF7 breast, in the assay on SNB-19 CNS, with BT-549 breast, in the assay with MDA-MB-435 and in the assay on CCRF-CEM leukemia was over 100 µM in each case. Besides, the TGI with OVCAR-5 ovarian, with SF-539 CNS and in the assay on LOX IMVI melanoma was over 100 µM throughout.
`CCOC(=O)CN1CC(C2=C(O)CN(CC(=O)OCC)C2=O)=CC1=O`: the TGI in the assay on COLO 205 colon, in the assay with MCF7 breast, with SNB-19 CNS, with BT-549 breast, in the assay with MDA-MB-435 and in the assay on CCRF-CEM leukemia was over 100 µM each time. The TGI in the assay with OVCAR-5 ovarian, with SF-539 CNS and with LOX IMVI melanoma was over 100 µM throughout.
On to `Cc1ccc(S(=O)(=O)N/N=C2/CC3CCC4CC2CC34)cc1` (stereo not given), for which the TGI in the assay with COLO 205 colon, in the assay on MCF7 breast, in the assay on SNB-19 CNS, in the assay on BT-549 breast, with MDA-MB-435 and in the assay with CCRF-CEM leukemia was over 100 µM each time. For the same compound, the TGI in the assay on OVCAR-5 ovarian, in the assay on SF-539 CNS and in the assay with LOX IMVI melanoma was over 100 µM in each case.
For the compound `N#C/C(N)=C(\C#N)N=CNc1ccc(N)cc1`, the TGI in the assay on COLO 205 colon, with MCF7 breast, in the assay with SNB-19 CNS, with BT-549 breast, in the assay with MDA-MB-435 and in the assay on CCRF-CEM leukemia was over 100 µM in each case. The TGI in the assay with OVCAR-5 ovarian, in the assay with SF-539 CNS and with LOX IMVI melanoma was over 100 µM throughout.
Regarding `O=C(Nc1nnc(-c2c(Cl)c(Cl)c(Cl)c(Cl)c2-c2nc3cc(C(=O)c4ccccc4)ccc3[nH]2)o1)c1ccc(Cl)cc1`, the TGI was 35.1 µM in the assay with COLO 205 colon; over 100 µM with MCF7 breast; over 100 µM with SNB-19 CNS; over 100 µM in the assay on BT-549 breast; over 100 µM with MDA-MB-435; over 100 µM with CCRF-CEM leukemia. The TGI in the assay with OVCAR-5 ovarian, with SF-539 CNS and with LOX IMVI melanoma was over 100 µM throughout.
Consider `Cc1cccc2c(N)c3cccc(C(=O)NCC[N+]4(Cc5ccc([N+](=O)[O-])cc5)CCOCC4)c3nc12`, for which the TGI in the assay with COLO 205 colon, with MCF7 breast, with SNB-19 CNS, with BT-549 breast, with MDA-MB-435 and in the assay with CCRF-CEM leukemia was over 100 µM throughout. In addition, the TGI in the assay with OVCAR-5 ovarian, with SF-539 CNS and in the assay on LOX IMVI melanoma was over 100 µM in each case.
Take `COc1nc2c(c(=O)n1C)N=C(c1ccc(Cl)cc1)CC(c1ccccc1)N2` (stereo not given): the TGI in the assay with COLO 205 colon was over 100 µM; in the assay with MCF7 breast it was 28.8 µM; in the assay with SNB-19 CNS, over 100 µM; with BT-549 breast it was 67.5 µM; in the assay with MDA-MB-435, over 100 µM; in the assay with CCRF-CEM leukemia, 69.3 µM. Also, the TGI with OVCAR-5 ovarian was 78.7 µM; in the assay with SF-539 CNS, 31.5 µM; in the assay with LOX IMVI melanoma, 52.2 µM.
With `ClCc1cccc(CSc2ncnc3c2ncn3Cc2cccc(CCl)c2)c1`, the GI50 was 1.88 µM in the assay on COLO 205 colon; 1.59 µM in the assay with MCF7 breast; 1.85 µM in the assay on SNB-19 CNS; 1.32 µM in the assay with BT-549 breast; 1.71 µM with MDA-MB-435; 1.6 µM in the assay with CCRF-CEM leukemia. The GI50 in the assay on OVCAR-5 ovarian is 1.84 µM; in the assay on SF-539 CNS, 1.58 µM; with LOX IMVI melanoma, 1.4 µM. Further, the TGI in the assay on COLO 205 colon amounted to 3.43 µM; in the assay on MCF7 breast, 3.3 µM; with SNB-19 CNS, 3.46 µM; with BT-549 breast, 2.83 µM; in the assay with MDA-MB-435 it was 3.67 µM; in the assay on CCRF-CEM leukemia it was 6.95 µM. Moreover, the TGI amounted to 3.99 µM in the assay on OVCAR-5 ovarian, 4.31 µM with SF-539 CNS and 2.74 µM in the assay with LOX IMVI melanoma.
As for `COC(=O)[C@@H]1CC(C(CN)c2cn(C(=O)OC(C)(C)C)c3ccccc23)C(=O)N1C(=O)OC(C)(C)C` (stereo not given in full), the TGI in the assay on COLO 205 colon is 32.8 µM; in the assay with MCF7 breast, 58.5 µM; in the assay with SNB-19 CNS, over 100 µM; with BT-549 breast it was over 100 µM; in the assay with MDA-MB-435 it was 50.7 µM; with CCRF-CEM leukemia, 34.8 µM. Moreover, the TGI in the assay with OVCAR-5 ovarian came to 84.2 µM; with SF-539 CNS it was 28.3 µM; in the assay on LOX IMVI melanoma it was 30.5 µM.
`CSc1c(CC(=O)Nc2ccc(Cl)cc2)n(Cc2ccccc2)c2ccccc12`: the TGI in the assay on COLO 205 colon is over 100 µM; with MCF7 breast it was over 100 µM; in the assay on SNB-19 CNS it was over 100 µM; with BT-549 breast it was 46.9 µM; in the assay on MDA-MB-435 it was over 100 µM; in the assay with CCRF-CEM leukemia it was over 100 µM. For the same compound, the figures for the TGI in the assay on OVCAR-5 ovarian, in the assay on SF-539 CNS and in the assay on LOX IMVI melanoma were over 100 µM, 9.6 µM and over 100 µM, respectively.
In the case of `CCCN1C(=O)/C(=C\c2ccc(OC)c(OC)c2)SC1=Nc1ccccc1`, the TGI in the assay on COLO 205 colon, in the assay with MCF7 breast, in the assay on SNB-19 CNS, with BT-549 breast, in the assay with MDA-MB-435 and in the assay with CCRF-CEM leukemia was over 100 µM in each case. For the same compound, the TGI in the assay with OVCAR-5 ovarian, in the assay on SF-539 CNS and in the assay on LOX IMVI melanoma was over 100 µM each time.
Consider `CC(C)(C)OC(=O)CN1CCN(CC(=O)N2CCN(C(=O)OCc3ccccc3)CC2)CCN(CC(=O)OC(C)(C)C)CCN(CC(=O)N2CCN(C(=O)OCc3ccccc3)CC2)CC1`, for which the TGI in the assay on COLO 205 colon was found to be 2.64 µM; in the assay with MCF7 breast, 14.9 µM; in the assay with SNB-19 CNS, 14.6 µM; in the assay with BT-549 breast, 14.5 µM; in the assay with MDA-MB-435, 7.36 µM; with CCRF-CEM leukemia, 3.51 µM. Moreover, the TGI in the assay with OVCAR-5 ovarian came out at 25.8 µM; in the assay on SF-539 CNS, 6.85 µM; in the assay with LOX IMVI melanoma it was 2.93 µM.
With `C=CCN(c1cc(OC)c2[nH]c(C(=O)OCC)c(C)c2c1[N+](=O)[O-])S(C)(=O)=O`, the TGI was 29.1 µM in the assay on COLO 205 colon; 52.2 µM in the assay with MCF7 breast; over 100 µM in the assay with SNB-19 CNS; 60.5 µM with BT-549 breast; 64.7 µM with MDA-MB-435; over 100 µM in the assay on CCRF-CEM leukemia. The TGI is 99.1 µM with OVCAR-5 ovarian, over 100 µM with SF-539 CNS and 39.4 µM with LOX IMVI melanoma.

Source of the values: PubChem BioAssay (NCI).
